Reference: publication PMC10692473 (Acta Pharmaceutica Sinica. B, 2023)
≈ marks a conversion by molar mass, not a printed value.

Legend:
S. aureus gyrase = S. aureus gyrase (Staphylococcus aureus, UniProt P0A0K8); test: Gyrase inhibitory assay; type: biochemical
E. coli gyrase = E. coli gyrase (Escherichia coli, UniProt P0AES6); test: Gyrase inhibitory assay; type: biochemical
S. aureus (ATCC29213) = test: Antibacterial assay; conditions: Staphylococcus aureus, ATCC29213, read-out: MIC S. aureus (ATCC29213)
E. coli (ATCC25922) = test: Antibacterial assay; conditions: Escherichia coli, ATCC25922, read-out: MIC E. coli (ATCC25922)

Row | SMILES | IC50 (S. aureus gyrase) [µM] | IC50 (E. coli gyrase) [µM] | MIC (S. aureus (ATCC29213)) [µg/mL] | MIC (E. coli (ATCC25922)) [µg/mL]
1 | CCOC(=O)c1nnc(N2CC[C@@H](NC(=O)c3[nH]c(C)c(Cl)c3Cl)[C@@H](OC)C2)o1 [Compound 16, Ethyl-5-((3S,4R)-4-(3,4-dichloro-5-methyl-1H-pyrrole-2-carboxamido)-3-methoxypiperidin-1-yl)-1,3,4-oxadiazole-2-carboxylate] | 2.34 | > 10 | 0.5 (≈ 1.12 µM) | 128 (≈ 287 µM)
2 | CCOC(=O)c1cnc(N2CC[C@@H](NC(=O)c3[nH]c(C)c(Cl)c3Cl)[C@@H](OC)C2)nc1 [Compound 12, Ethyl 2-((3S,4R)-4-(3,4-dichloro-5-methyl-1H-pyrrole-2-carboxamido)-3-methoxy-piperidin-1-yl)pyrimidine-5-carboxylate] | 4.87 ± 0.02 | > 10 | 0.125 (≈ 0.274 µM) | > 128
3 | CO[C@H]1CN(c2ccc(CN)nn2)CC[C@H]1NC(=O)c1[nH]c(C)c(Cl)c1Cl [Compound 34, N-((3S,4R)-1-(6-(Aminomethyl)pyridazin-3-yl)-3-methoxypiperidin-4-yl)-3,4-dichloro-5-methyl-1H-pyrrole-2-carboxamide] | > 10 | > 10 | 32 (≈ 77.4 µM) | > 128
4 | CO[C@H]1CN(c2ccc(-c3nn[nH]n3)nn2)CC[C@H]1NC(=O)c1[nH]c(C)c(Cl)c1Cl [Compound 36, N-((3S,4R)-1-(6-(2H-Tetrazol-5-yl)pyridazin-3-yl)-3-methoxypiperidin-4-yl)-3,4-dichloro-5-methyl-1H-pyrrole-2-carboxamide] | > 10 | > 10 | 0.5 (≈ 1.11 µM) | 16 (≈ 35.4 µM)
5 | COC(=O)c1cnc(N2CC[C@@H](NC(=O)c3[nH]c(C)c(Cl)c3Cl)[C@@H](OC)C2)cn1 [Compound 13, Methyl-5-((3S,4R)-4-(3,4-dichloro-5-methyl-1H-pyrrole-2-carboxamido)-3-methoxypiperidin-1-yl)pyrazine-2-carboxylate] | > 10 | > 10 | > 128 | > 128
6 | COC(=O)c1ccc(N2CC[C@@H](NC(=O)c3[nH]c(C)c(Cl)c3Cl)[C@@H](OC)C2)nc1 [Compound 11, Methyl 6-((3S,4R)-4-(3,4-dichloro-5-methyl-1H-pyrrole-2-carboxamido)-3-methoxy-piperidin-1-yl)nicotinate] | 3.35 ± 0.154 | > 10 | 1 (≈ 2.27 µM) | > 128
7 | CO[C@H]1CN(c2ccc(C(=N)N)nn2)CC[C@H]1NC(=O)c1[nH]c(C)c(Cl)c1Cl [Compound 35, N-((3S,4R)-1-(6-Carbamimidoylpyridazin-3-yl)-3-methoxypiperidin-4-yl)-3,4-dichloro-5-methyl-1H-pyrrole-2-carboxamide] | > 10 | > 10 | 32 (≈ 75.1 µM) | > 128
8 | COC(=O)c1cnc(N2CC[C@@H](NC(=O)c3[nH]c(C)c(Cl)c3Cl)[C@@H](OC)C2)s1 [Compound 9, Methyl 2-((3S,4R)-4-(3,4-dichloro-5-methyl-1H-pyrrole-2-carboxamido)-3-methoxypiperidin-1-yl)thiazole-5-carboxylate] | 1.45 ± 0.111 | > 10 | 0.125 (≈ 0.279 µM) | > 128
9 | CO[C@H]1CN(c2ccc(C(=O)N3CCNCC3)nn2)CC[C@H]1NC(=O)c1[nH]c(C)c(Cl)c1Cl [Compound 33, 3,4-Dichloro-N-((3S,4R)-3-methoxy-1-(6-(piperazine-1-carbonyl)pyridazin-3-yl)piperidin-4-yl)-5-methyl-1H-pyrrole-2-carboxamide] | 1.09 ± 0.146 | > 10 | 0.25 (≈ 0.504 µM) | 32 (≈ 64.5 µM)

Stronger by IC50 (S. aureus gyrase), values ahead:

Row | IC50 (S. aureus gyrase) [µM] | IC50 (E. coli gyrase) [µM] | MIC (S. aureus (ATCC29213)) [µg/mL] | MIC (E. coli (ATCC25922)) [µg/mL] | SMILES
10 | 0.084 ± 0.037 | 8.21 ± 1.21 | 0.25 (≈ 0.621 µM) | 16 (≈ 39.8 µM) | CO[C@H]1CN(c2ccc(F)nn2)CC[C@H]1NC(=O)c1[nH]c(C)c(Cl)c1Cl [Compound 17, 3,4-Dichloro-N-((3S,4R)-1-(6-fluoropyridazin-3-yl)-3-methoxypiperidin-4-yl)-5-methyl-1H-pyrrole-2-carboxamide]
11 | 0.12 ± 0.047 | 9.31 ± 0.923 | 0.03 (≈ 0.0663 µM) | 16 (≈ 35.4 µM) | CO[C@H]1CN(c2ccc(C(F)(F)F)nn2)CC[C@H]1NC(=O)c1[nH]c(C)c(Cl)c1Cl [Compound 19, 3,4-Dichloro-N-((3S,4R)-3-methoxy-1-(6-(trifluoromethyl)pyridazin-3-yl)piperidin-4-yl)-5-methyl-1H-pyrrole-2-carboxamide]
12 | 0.13 ± 0.017 | 7.42 ± 1.01 | 0.03 (≈ 0.0648 µM) | 4 (≈ 8.64 µM) | CO[C@H]1CN(c2ccc(Br)nn2)CC[C@H]1NC(=O)c1[nH]c(C)c(Cl)c1Cl [Compound 18, N-((3S,4R)-1-(6-Bromopyridazin-3-yl)-3-methoxypiperidin-4-yl)-3,4-dichloro-5-methyl-1H-pyrrole-2-carboxamide]
13 | 0.576 ± 0.045 | > 10 | 0.125 (≈ 0.275 µM) | > 128 | CCNC(=O)c1ccc(N2CC[C@@H](NC(=O)c3[nH]c(C)c(Cl)c3Cl)[C@@H](OC)C2)nn1 [Compound 31, 6-((3S,4R)-4-(3,4-Dichloro-5-methyl-1H-pyrrole-2-carboxamido)-3-methoxypiperidin-1-yl)-N-ethylpyridazine-3-carboxamide]
14 | 0.696 ± 0.056 | > 10 | 0.125 (≈ 0.283 µM) | 16 (≈ 36.3 µM) | CNC(=O)c1ccc(N2CC[C@@H](NC(=O)c3[nH]c(C)c(Cl)c3Cl)[C@@H](OC)C2)nn1 [Compound 30, 6-((3S,4R)-4-(3,4-Dichloro-5-methyl-1H-pyrrole-2-carboxamido)-3-methoxypiperidin-1-yl)-N-methylpyridazine-3-carboxamide]
15 | 0.137 ± 0.013 | 6.87 ± 1.22 | 0.125 (≈ 0.27 µM) | 16 (≈ 34.6 µM) | CCOC(=O)c1nnc(N2CC[C@@H](NC(=O)c3[nH]c(C)c(Cl)c3Cl)[C@@H](OC)C2)s1 [Compound 10, Ethyl 5-((3S,4R)-4-(3,4-dichloro-5-methyl-1H-pyrrole-2-carboxamido)-3-methoxy-piperidin-1-yl)-1,3,4-thiadiazole-2-carboxylate]
16 | 0.701 ± 0.248 | > 10 | 0.06 (≈ 0.147 µM) | > 128 | CO[C@H]1CN(c2ccc(C#N)nn2)CC[C@H]1NC(=O)c1[nH]c(C)c(Cl)c1Cl [Compound 20, 3,4-Dichloro-N-((3S,4R)-1-(6-cyanopyridazin-3-yl)-3-methoxypiperidin-4-yl)-5-methyl-1H-pyrrole-2-carboxamide]
17 | 0.825 ± 0.303 | > 10 | 0.06 (≈ 0.141 µM) | > 128 | CO[C@H]1CN(c2ccc(C(C)=O)nn2)CC[C@H]1NC(=O)c1[nH]c(C)c(Cl)c1Cl [Compound 21, N-((3S,4R)-1-(6-Acetylpyridazin-3-yl)-3-methoxypiperidin-4-yl)-3,4-dichloro-5-methyl-1H-pyrrole-2-carboxamide]
18 | 0.094 ± 0.04 | 5.11 ± 0.545 | 0.03 (≈ 0.0724 µM) | 4 (≈ 9.66 µM) | CO[C@H]1CN(c2ccc(CO)nn2)CC[C@H]1NC(=O)c1[nH]c(C)c(Cl)c1Cl [Compound 27, 3,4-Dichloro-N-((3S,4R)-1-(6-(hydroxymethyl)pyridazin-3-yl)-3-methoxypiperidin-4-yl)-5-methyl-1H-pyrrole-2-carboxamide]
